Earlier results as cited in patent US10640803B2, “Methods for determining chemosensitivity and chemotoxicity” (priority 2013, dated 2020).

Tested on: CLL patients
Details: caused the halt of the study

## CC1(C)CCC(c2ccc(Cl)cc2)=C(CN2CCN(c3ccc(C(=O)NS(=O)(=O)c4ccc(N[C@H](CCN5CCOCC5)CSc5ccccc5)c(S(=O)(=O)C(F)(F)F)c4)cc3)CC2)C1 [ABT-263]
  adverse event in the study: occurrence of tumor lysis syndrome
